# Literature values, collected in Sander's compilation of Henry's law constants (doi:10.1021/je0002282).
# Assay: Henry solubility constant Hcp at 298.15 K (mol/(m3 Pa))
# Conditions: reference: Plyasunov and Shock (2001); cited value
row,SMILES,Henry solubility constant Hcp
1,CC(=O)CC(C)C [4-methyl-2-pentanone],0.069
2,"CC(C)CC(=O)CC(C)C [2,6-dimethyl-4-heptanone]",0.013
3,CC(=O)C(C)C [3-methyl-2-butanone],0.091
4,"CC(C)C(=O)C(C)C [2,4-dimethyl-3-pentanone]",0.024
5,CCCCCC(C)=O [2-heptanone],0.072
6,CCCC(C)=O [2-pentanone],0.13
7,CCCCC(C)=O [2-hexanone],0.098
8,CCCCCCC(C)=O [2-octanone],0.058
9,CCCCCCCCCC(C)=O [2-undecanone],0.019
10,CCCC(=O)CC [3-hexanone],0.075
11,CCC(=O)C(C)C [2-methyl-3-pentanone],0.053
12,CC(C)=O [propanone],0.27
13,CCCCCCCC(C)=O [2-nonanone],0.037
14,"CC(=O)C(C)(C)C [3,3-dimethyl-2-butanone]",0.045
15,CCCC(=O)CCC [4-heptanone],0.061
16,CCC(=O)CC [3-pentanone],0.11
